Laboratory results taken from US8404650B2, “Methods of treating cancer with doxazolidine and prodrugs thereof” (priority 2005, dated 2013).

Columns and labels:
MCF-7 = experiment: Growth inhibition of MCF-7 sensitive breast cancer cells (colony formation, crystal violet); assay type: cell-based, human
Description: (§1) In vitro Activity. […] This cell suspension was dispensed in 200 μL aliquots (1000 cells/well) into the inside wells of 96-well tissue culture plates. Outside wells contained 200 μL of media. […] The medium was replaced with 90 μL of growth medium prior to addition of the drug. Doxaz was dissolved in DMSO at concentrations ranging from 50 μM to 1 mM. […] Serial dilutions (1:3 and 1:10) were made in sterile DMSO to yield seven solutions of decreasing drug concentration at 100× the respective working concentrations. […] Additionally, two lanes were treated with 10 μL of growth medium containing 10% sterile DMSO and one lane was treated with 90 μL of 1.5 M Tris HCl. […]
(§2) Cell growth inhibition experiments initially focused on MCF-7, MCF-7/Adr, SK-HEP-1, and Hep G2 cancer cells as well as rat cardiomyocytes as a measure of cardiotoxicity and Vero cells (green monkey kidney cells) as an additional measure of normal cell toxicity.
(§3) Activity of plasmin-activated prodrugs.
(§4) A more thorough characterization of the growth inhibition of a variety of cancer cells as well as rat cardiomyocytes by Formula IV (aFK-PABC-Doxaz) was evaluated in comparison with inhibition of growth by Doxaz, Dox and aFK-PABC-Dox. Cells were treated with drug for 3 h and colony growth was measured at 3 to 5 days when cells reached about 80% confluence. […] The breast cancer cell lines represent the multi-drug resistant (MDR) phenotype with MCF-7/Adr cells and a cell line that is transfected with the gene for urokinase plasminogen activator (uPA), the primary enzyme responsible for cleavage of plasminogen to plasmin. Rat cardiomyocytes served as a model for comparison of drug cardiotoxicity.

MCF-7/Adr = experiment: Growth inhibition of multidrug resistant MCF-7/Adr breast cancer cells (crystal violet); assay type: cell-based
Description: as §1, §2, §3, §4

DU-145 = experiment: Growth inhibition of DU-145 prostate cancer cells; assay type: cell-based
Description: as §1
(§5) SHP-77 small cell lung cancer cells were also of interest because they express modest amounts of both enzymes. Inhibition of the growth of cardiomyocytes was used as a measure of cardiotoxicity, and inhibition of the growth of Vero cells, green monkey kidney cells, was again used as another measure of toxicity to normal cells.
as §4, with “Cells were treated with drug for 3 h and colony growth was measured at 3 to 5 days when cells reached about 80% confluence.” left out

SK-HEP-1 = experiment: Growth inhibition of SK-HEP-1 liver cancer cells; assay type: cell-based, human; conditions: crystal violet
From the text: (§6) Cell growth inhibition experiments initially focused on MCF-7, MCF-7/Adr, SK-HEP-1, and Hep G2 cancer cells as well as rat cardiomyocytes as a measure of cardiotoxicity and Vero cells (green monkey kidney cells) as an additional measure of normal cell toxicity. […]

Hep G2 = experiment: Growth inhibition of Hep G2 liver cancer cells; assay type: cell-based, human; conditions: crystal violet
From the text: as §6

[1] = test system: H9c2(2-1) rat cardiomyocytes; experiment: Growth inhibition of rat cardiomyocytes as a measure of cardiotoxicity; assay type: cell-based; conditions: 24 h drug treatment; crystal violet
Description: Biological activity of simple Doxazolidine carbamates. Since the prodrug carbamates were designed to be activated by carboxylesterases CES1 (hCE1) and/or CES2 (hiCE), cell lines of interest were measured for expression of the respective mRNAs using reverse transcription (RT) followed by PCR (polymerase chain reaction). Cancer cell lines investigated included SHP-77 resistant small cell lung, DU-145 prostate, MCF-7 sensitive breast, MCF-7/Adr resistant breast, SK-HEP-1 liver, and Hep G2 liver cells. As a measure of possible cardiotoxicity, H9c2(2-1) rat cardiomyocytes were also investigated. Cardiotoxicity is relevant because the ultimate product of metabolism and subsequent hydrolysis of these carbamates is doxorubicin, which is cardiotoxic. […] Additionally, the rat cardiomyocytes, H9c2(2-1), also express more CES2 than CES1.
Cell growth inhibition experiments initially focused on MCF-7, MCF-7/Adr, SK-HEP-1, and Hep G2 cancer cells as well as rat cardiomyocytes as a measure of cardiotoxicity and Vero cells (green monkey kidney cells) as an additional measure of normal cell toxicity. The butyl and pentyl carbamates inhibited the growth of MCF-7, MCF-7/Adr, and SK-HEP-1 cell lines with a 24 h drug treatment period with some selectivity for cancer cells over cardiomyocytes relative to growth inhibition by Dox as shown in Table 2. […] The relative inactivity of the ethyl carbamate may indicate that a substantial lipophilic interaction is required at the active site of the carboxylesterases to hold the Doxaz substrate.
Biological activity of Doxazolidine carbamates with self-eliminating spacer. […] SHP-77 small cell lung cancer cells were also of interest because they express modest amounts of both enzymes. Inhibition of the growth of cardiomyocytes was used as a measure of cardiotoxicity, and inhibition of the growth of Vero cells, green monkey kidney cells, was again used as another measure of toxicity to normal cells. They also show more activity against the cancer cells that express higher levels of CES1. Of particular note is the higher activity against Hep G2 cells than against SK-HEP-1 cells. […] The low toxicity of pentyl PABC-Doxaz to cardiomyocytes relative to the toxicity of Dox is encouraging and consistent with the low level of expression of CES1 in cardiomyocytes.
A more thorough characterization of the growth inhibition of a variety of cancer cells as well as rat cardiomyocytes by Formula IV (aFK-PABC-Doxaz) was evaluated in comparison with inhibition of growth by Doxaz, Dox and aFK-PABC-Dox. Cells were treated with drug for 3 h and colony growth was measured at 3 to 5 days when cells reached about 80% confluence. The cancer cells included one prostate cancer cell line (DU-145), three related breast cancer cell lines (MCF-7, MCF-7/Adr, and MCF-7 uPA), and one pancreatic cancer cell line (Mia PaCa-2). The breast cancer cell lines represent the multi-drug resistant (MDR) phenotype with MCF-7/Adr cells and a cell line that is transfected with the gene for urokinase plasminogen activator (uPA), the primary enzyme responsible for cleavage of plasminogen to plasmin. Rat cardiomyocytes served as a model for comparison of drug cardiotoxicity. Growth inhibition was also measured with added plasmin. aFK-PABC-Doxaz inhibited the growth of most of the cancer cells 0.5 log or more better than did aFK-PABA-Dox. Although not as dramatic, this differential response paralleled the differential response between Doxaz and Dox which is approximately two logs except for the MDR expressing, MCF-7/Adr cells which show more than three logs differential response. […] Addition of 0.01 unit/mL of plasmin has no effect on the activity of Dox but increases the activity of both aFK-PABC-Doxaz and aFK-PABC-Dox, in some cases by more than a log. Addition of 0.01 unit/mL plasminogen increases the activity of aFK-PABC-Doxaz on average by 0.3 log. […]

Vero cells = experiment: Growth inhibition of Vero cells as a measure of normal cell toxicity (MTT); assay type: cell-based, green monkey
From the text: as §2, §5

SHP-77 = experiment: Growth inhibition of SHP-77 small cell lung cancer cells; assay type: cell-based; conditions: 24 h drug treatment; crystal violet
From the text: as §5

[2] = Uptake of pentyl carbamate relative to Dox, flow cytometry, with and without fetal bovine serum; assay type: cell-based
Description: Uptake of the pentyl carbamate relative to uptake of Dox was measured by flow cytometry, monitoring fluorescence of the Dox fluorophore as a measure of drug in cells. The measurements were performed over a period of 3 h in the presence and absence of fetal bovine serum, and the results are shown in FIG. 4. […] Further, the presence of 10% fetal bovine serum decreased the uptake of doxorubicin and the pentyl carbamate by about 25%. The more rapid uptake of the pentyl carbamate in the presence and absence of serum probably reflects its increased hydrophobicity relative to that of doxorubicin which is a cation at physiological pH. Increased hydrophobicity may also be the explanation for the effect of serum on the uptake of the carbamate; namely, the carbamate binds to serum proteins reducing drug uptake.

[3] = Hydrolytic stability of Doxaz carbamate prodrugs in aqueous media; assay type: physicochemical; conditions: pH 7.4 buffer, no cells or growth media, 24 h, ambient temperature, HPLC
cancer cells = conditions: background statement; cited from earlier work
[4] = buffer; cited from earlier work
αvβ3 integrin = αvβ3 integrin (Homo sapiens, UniProt P05106+P06756); conditions: cited from earlier work
[5] = 24 h drug treatment, crystal violet

Chain of αvβ3 integrin (P06756 31-889 limits assumed): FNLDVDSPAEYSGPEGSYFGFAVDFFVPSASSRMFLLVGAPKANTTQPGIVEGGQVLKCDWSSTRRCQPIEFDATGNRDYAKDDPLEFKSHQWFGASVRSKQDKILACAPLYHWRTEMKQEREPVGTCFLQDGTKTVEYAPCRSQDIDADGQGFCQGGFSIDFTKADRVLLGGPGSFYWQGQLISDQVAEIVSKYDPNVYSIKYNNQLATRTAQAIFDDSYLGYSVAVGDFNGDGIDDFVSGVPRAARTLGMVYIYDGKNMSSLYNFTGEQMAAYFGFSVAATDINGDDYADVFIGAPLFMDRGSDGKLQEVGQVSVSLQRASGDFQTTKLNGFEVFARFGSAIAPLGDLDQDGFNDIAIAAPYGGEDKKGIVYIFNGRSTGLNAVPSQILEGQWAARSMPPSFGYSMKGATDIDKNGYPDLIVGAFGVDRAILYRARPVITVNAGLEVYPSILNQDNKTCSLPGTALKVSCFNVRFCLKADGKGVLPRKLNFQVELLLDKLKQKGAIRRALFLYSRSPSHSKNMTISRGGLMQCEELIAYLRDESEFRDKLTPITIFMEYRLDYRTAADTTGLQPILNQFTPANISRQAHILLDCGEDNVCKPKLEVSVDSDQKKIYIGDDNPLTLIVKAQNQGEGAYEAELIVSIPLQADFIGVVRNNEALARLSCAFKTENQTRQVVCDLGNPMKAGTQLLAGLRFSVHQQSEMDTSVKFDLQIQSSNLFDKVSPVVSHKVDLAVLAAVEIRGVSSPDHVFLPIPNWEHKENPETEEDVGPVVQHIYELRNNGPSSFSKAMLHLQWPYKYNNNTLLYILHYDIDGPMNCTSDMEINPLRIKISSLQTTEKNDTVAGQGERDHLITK
Chain of αvβ3 integrin (P06756 891-1048 partner limits assumed): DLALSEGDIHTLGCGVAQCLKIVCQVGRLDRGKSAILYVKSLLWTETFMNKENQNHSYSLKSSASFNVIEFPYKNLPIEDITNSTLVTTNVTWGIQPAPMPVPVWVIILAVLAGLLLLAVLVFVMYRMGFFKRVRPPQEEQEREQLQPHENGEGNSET
Chain of αvβ3 integrin (P05106 27-788): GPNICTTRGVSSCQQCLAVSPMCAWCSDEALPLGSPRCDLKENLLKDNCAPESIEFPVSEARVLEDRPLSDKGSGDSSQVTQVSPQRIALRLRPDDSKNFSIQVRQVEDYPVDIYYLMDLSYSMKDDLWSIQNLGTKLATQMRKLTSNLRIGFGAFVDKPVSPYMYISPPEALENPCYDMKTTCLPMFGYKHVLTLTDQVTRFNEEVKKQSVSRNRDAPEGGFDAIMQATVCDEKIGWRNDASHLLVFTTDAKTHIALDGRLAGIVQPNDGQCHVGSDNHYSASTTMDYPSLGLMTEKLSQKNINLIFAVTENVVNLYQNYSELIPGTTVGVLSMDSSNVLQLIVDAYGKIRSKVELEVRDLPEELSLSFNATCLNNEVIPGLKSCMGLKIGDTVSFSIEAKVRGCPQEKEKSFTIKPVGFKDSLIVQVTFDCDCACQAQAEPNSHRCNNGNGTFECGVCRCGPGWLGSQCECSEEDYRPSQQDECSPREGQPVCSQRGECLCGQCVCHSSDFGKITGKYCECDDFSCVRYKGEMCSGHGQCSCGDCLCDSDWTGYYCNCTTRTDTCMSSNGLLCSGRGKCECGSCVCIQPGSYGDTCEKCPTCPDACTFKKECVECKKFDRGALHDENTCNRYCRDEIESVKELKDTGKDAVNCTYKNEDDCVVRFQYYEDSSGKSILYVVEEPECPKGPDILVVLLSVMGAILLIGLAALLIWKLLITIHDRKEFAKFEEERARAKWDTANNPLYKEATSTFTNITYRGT

Molecule: CCCCCOC(=O)N1COC2C(C)OC(OC3CC(O)(C(=O)CO)Cc4c(O)c5c(c(O)c43)C(=O)c3c(OC)cccc3C5=O)CC21 (stereo not drawn) [Doxaz Pentyl Carbamate]
- Growth inhibition IC50, MCF-7, 3 h (MCF-7; 3 h drug treatment, crystal violet): >−6 log of the molar concentration
- Growth inhibition IC50, MCF-7, 24 h (MCF-7; [5]): −6.1 ± 0.03 log of the molar concentration
- Growth inhibition IC50, MCF-7/Adr, 24 h (MCF-7/Adr; [5]): −6.0 ± 0.09 log of the molar concentration
- Cell growth inhibition IC50, DU-145 (DU-145; [5]): −6.0 ± 0.04 log of molar concentrations
- Growth inhibition IC50, SK-HEP-1, 3 h (SK-HEP-1; 3 h drug treatment): >−6 log of the molar concentration
- Growth inhibition IC50, SK-HEP-1, 24 h (SK-HEP-1; 24 h drug treatment): −6.7 ± 0.1 log of the molar concentration
- Growth inhibition IC50, Hep G2, 3 h (Hep G2; 3 h drug treatment): >−6 log of the molar concentration
- Growth inhibition IC50, Hep G2, 24 h (Hep G2; 24 h drug treatment): −6.5 ± 0.3 log of the molar concentration
- Growth inhibition IC50, H9c2(2-1), 24 h [1]: −6.6 ± 0.1 log of the molar concentration
- Growth inhibition IC50, Vero, 3 h (Vero cells; 3 h drug treatment): −5.4 ± 0.1 log of the molar concentration
- Growth inhibition IC50, Vero, 24 h (Vero cells; 24 h drug treatment): −5.3 ± 0.01 log of the molar concentration
- Cell growth inhibition IC50, SHP-77 (SHP-77): −6.3 ± 0.3 log of molar concentrations
- Decrease of uptake by 10% fetal bovine serum ([2]; 10% fetal bovine serum, flow cytometry, 3 h): about 25%
- Uptake relative to Dox ([2]; flow cytometry over 3 h, with and without serum): taken up at a higher level and more rapidly than Dox
- Stability to hydrolysis in buffer [3]: stable to hydrolysis

Molecule: COc1cccc2c1C(=O)c1c(O)c3c(c(O)c1C2=O)C[C@@](O)(C(=O)CO)C[C@@H]3O[C@H]1C[C@H]2C(OCN3CN2CO[C@H]2[C@@H](C)O[C@@H](O[C@H]4C[C@](O)(C(=O)CO)Cc5c(O)c6c(c(O)c54)C(=O)c4c(OC)cccc4C6=O)C[C@@H]23)[C@H](C)O1 (stereo partly drawn) [EpiF, Epidoxoform, reference compound]
- IC50 (MCF-7; Homo sapiens, MCF7, 3 h, read-out: IC50 MCF-7): 0.065 µM
- IC50 (MCF-7/Adr; Homo sapiens, NCI/ADR-RES, 3 h, read-out: IC50 MCF-7/Adr): 0.07 µM
- IC50 (DU-145; Homo sapiens, DU-145, 3 h, read-out: IC50 DU-145): 0.026 ± 0.005 µM
- Less active than DoxF in cancer cell growth inhibition (cancer cells): 50 fold
- Half-life, stability in water with respect to loss of formaldehyde [4]: 2 h

Molecule: Lys-Arg-Gly-Asp-phe (KRGD; C-terminal D-Phe; printed: Lys-Arg-Gly-Asp-) [KRGDf]
- Specificity for αvβ3 over αIIbβ3 platelet receptor (αvβ3 integrin): 1000 fold
